Drawing on ChEMBL document CHEMBL4002591 (J Med Chem, 2017), this text covers IC50 for two molecules.

Each structure is given as a SMILES string. Bounds are passed on as bounds.

Test [1] addresses Protein mono-ADP-ribosyltransferase PARP4 (Homo sapiens, UniProt Q9UKK3). The test is described as follows: Inhibition of PARP4 (unknown origin).
Test [2] has as its target Protein mono-ADP-ribosyltransferase PARP14 (Homo sapiens, UniProt Q460N5). The test is described as follows: Inhibition of PARP14 (unknown origin).
Test [3] concerns the target T1, Protein mono-ADP-ribosyltransferase PARP12 (Homo sapiens, UniProt Q9H0J9).
T1 sequence (Q9H0J9 whole entry): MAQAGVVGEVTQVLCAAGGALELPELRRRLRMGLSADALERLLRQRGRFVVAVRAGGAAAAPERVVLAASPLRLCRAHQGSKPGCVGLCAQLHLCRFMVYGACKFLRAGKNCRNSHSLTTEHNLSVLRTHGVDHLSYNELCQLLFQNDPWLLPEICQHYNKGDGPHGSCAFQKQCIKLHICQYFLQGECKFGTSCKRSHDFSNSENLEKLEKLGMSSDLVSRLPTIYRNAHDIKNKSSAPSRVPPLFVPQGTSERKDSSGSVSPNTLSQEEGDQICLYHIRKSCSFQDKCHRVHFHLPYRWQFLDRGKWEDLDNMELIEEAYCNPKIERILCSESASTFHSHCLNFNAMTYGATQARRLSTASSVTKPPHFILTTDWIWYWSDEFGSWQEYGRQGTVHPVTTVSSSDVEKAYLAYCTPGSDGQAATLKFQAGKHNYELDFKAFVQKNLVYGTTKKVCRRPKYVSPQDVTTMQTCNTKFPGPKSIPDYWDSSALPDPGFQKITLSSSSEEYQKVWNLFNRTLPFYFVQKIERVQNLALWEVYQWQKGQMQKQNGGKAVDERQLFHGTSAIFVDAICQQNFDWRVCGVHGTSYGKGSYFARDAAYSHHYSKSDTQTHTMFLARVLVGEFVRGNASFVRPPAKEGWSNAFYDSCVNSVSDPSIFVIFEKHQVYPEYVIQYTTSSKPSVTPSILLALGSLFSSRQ
As to the kind of experiment: Inhibition of PARP12 (unknown origin).

Test [4] concerns the target Poly [ADP-ribose] polymerase 2 (Homo sapiens, UniProt Q9UGN5). The test is described as follows: Inhibition of recombinant human N-terminal GST-tagged PARP2 (2 to 583 residues) expressed in baculovirus infected Sf9 cells measured after 1 hr by chemiluminescence assay.
Test [5] concerns the target T2, Poly [ADP-ribose] polymerase 1 (Homo sapiens, UniProt P09874). As to the kind of experiment: Inhibition of full length recombinant human N-terminal GST-tagged PARP1 expressed in Baculovirus infected Sf9 cells using TACS-Sapphire as substrate measured after 1 hr by colorimetric assay. The conditions noted are these: read-out: IC50.
The target of test [6] is T3, Protein mono-ADP-ribosyltransferase PARP16 (Homo sapiens, UniProt Q8N5Y8).
T3 sequence (Q8N5Y8 whole entry): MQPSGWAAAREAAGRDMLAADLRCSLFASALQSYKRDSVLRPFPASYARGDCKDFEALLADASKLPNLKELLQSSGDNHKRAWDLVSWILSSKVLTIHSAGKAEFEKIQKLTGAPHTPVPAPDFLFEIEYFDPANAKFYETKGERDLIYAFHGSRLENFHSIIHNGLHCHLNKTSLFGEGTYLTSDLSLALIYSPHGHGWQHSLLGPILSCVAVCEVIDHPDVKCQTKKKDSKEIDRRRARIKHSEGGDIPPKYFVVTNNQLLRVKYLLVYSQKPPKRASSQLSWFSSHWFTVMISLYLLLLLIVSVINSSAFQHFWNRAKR
The test is described as follows: Inhibition of PARP16 (unknown origin).

Test [7] has as its target T2, Poly [ADP-ribose] polymerase 1. As to the kind of experiment: Inhibition of PARP1 (unknown origin).

T2 sequence (P09874 whole entry): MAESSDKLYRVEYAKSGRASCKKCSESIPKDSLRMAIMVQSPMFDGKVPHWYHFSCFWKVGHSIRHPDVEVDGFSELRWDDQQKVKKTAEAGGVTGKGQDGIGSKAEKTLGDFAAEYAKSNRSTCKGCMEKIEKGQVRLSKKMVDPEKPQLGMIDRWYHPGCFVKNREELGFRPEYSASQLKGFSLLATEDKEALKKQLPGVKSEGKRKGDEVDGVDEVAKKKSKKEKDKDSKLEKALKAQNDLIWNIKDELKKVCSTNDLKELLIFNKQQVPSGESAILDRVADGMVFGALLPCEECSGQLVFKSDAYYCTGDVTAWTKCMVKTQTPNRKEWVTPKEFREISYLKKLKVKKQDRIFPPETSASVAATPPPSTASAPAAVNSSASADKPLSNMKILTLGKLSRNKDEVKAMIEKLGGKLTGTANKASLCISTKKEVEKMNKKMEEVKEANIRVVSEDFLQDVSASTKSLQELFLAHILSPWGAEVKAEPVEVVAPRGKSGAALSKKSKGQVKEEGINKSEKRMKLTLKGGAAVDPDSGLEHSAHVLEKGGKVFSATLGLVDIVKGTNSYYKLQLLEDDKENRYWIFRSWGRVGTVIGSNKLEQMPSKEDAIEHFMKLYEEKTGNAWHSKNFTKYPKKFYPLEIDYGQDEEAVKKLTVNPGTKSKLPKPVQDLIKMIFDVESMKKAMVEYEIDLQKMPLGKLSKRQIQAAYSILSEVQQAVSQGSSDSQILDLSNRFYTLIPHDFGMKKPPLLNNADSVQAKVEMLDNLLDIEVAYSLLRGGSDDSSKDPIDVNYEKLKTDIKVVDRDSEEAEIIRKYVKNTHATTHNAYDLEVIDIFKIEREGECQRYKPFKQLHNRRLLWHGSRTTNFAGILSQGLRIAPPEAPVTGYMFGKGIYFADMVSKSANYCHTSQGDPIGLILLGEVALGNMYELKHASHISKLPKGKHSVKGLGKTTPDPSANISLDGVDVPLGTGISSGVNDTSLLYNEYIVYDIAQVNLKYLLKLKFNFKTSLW
Protein mono-ADP-ribosyltransferase PARP14, sequence (Q460N5 whole entry): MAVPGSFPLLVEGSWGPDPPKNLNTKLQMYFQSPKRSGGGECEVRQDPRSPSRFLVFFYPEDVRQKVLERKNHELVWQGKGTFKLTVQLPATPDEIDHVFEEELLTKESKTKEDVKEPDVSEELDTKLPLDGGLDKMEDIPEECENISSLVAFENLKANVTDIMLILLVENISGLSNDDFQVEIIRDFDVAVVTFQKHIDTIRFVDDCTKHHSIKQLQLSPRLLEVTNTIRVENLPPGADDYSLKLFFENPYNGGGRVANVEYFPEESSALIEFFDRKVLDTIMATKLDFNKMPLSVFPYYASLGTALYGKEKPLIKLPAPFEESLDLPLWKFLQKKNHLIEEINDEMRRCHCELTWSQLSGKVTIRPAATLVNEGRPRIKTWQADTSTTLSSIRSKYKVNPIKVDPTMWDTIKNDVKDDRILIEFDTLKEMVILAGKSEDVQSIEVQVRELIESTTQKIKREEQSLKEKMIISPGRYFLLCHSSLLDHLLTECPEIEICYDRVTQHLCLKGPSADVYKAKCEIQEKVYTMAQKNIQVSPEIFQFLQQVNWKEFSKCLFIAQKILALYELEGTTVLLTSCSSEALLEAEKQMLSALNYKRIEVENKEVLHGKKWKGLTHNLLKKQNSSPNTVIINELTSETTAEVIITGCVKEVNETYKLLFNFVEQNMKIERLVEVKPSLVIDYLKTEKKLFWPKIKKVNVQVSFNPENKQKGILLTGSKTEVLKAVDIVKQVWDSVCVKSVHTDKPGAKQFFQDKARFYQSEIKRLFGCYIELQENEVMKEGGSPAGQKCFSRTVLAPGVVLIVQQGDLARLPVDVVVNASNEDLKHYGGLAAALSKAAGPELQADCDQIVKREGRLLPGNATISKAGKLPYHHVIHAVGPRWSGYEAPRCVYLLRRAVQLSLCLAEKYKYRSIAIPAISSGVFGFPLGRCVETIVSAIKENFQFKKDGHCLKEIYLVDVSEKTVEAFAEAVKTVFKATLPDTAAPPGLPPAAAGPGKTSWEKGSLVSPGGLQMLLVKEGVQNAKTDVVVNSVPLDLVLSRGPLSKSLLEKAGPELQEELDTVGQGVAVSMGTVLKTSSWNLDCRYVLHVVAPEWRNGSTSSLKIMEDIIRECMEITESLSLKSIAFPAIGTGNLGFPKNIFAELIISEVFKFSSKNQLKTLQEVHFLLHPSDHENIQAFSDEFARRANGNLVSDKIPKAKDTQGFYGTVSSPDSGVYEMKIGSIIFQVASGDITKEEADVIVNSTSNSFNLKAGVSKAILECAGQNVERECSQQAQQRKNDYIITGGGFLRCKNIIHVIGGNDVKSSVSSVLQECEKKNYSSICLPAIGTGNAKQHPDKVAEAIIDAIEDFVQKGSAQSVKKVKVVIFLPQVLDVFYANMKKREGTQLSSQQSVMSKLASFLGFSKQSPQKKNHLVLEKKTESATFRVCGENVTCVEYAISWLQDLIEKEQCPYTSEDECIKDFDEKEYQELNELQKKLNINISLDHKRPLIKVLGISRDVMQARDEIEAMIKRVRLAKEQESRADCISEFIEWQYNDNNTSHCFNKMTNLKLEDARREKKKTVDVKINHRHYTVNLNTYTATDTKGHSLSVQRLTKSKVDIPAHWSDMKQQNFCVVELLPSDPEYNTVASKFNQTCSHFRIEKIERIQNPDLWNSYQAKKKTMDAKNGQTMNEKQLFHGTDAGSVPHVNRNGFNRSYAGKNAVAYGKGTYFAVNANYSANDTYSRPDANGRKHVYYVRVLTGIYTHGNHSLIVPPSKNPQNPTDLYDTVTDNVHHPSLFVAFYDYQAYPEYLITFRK
Poly [ADP-ribose] polymerase 2, sequence (Q9UGN5 whole entry, the tested form may be a part): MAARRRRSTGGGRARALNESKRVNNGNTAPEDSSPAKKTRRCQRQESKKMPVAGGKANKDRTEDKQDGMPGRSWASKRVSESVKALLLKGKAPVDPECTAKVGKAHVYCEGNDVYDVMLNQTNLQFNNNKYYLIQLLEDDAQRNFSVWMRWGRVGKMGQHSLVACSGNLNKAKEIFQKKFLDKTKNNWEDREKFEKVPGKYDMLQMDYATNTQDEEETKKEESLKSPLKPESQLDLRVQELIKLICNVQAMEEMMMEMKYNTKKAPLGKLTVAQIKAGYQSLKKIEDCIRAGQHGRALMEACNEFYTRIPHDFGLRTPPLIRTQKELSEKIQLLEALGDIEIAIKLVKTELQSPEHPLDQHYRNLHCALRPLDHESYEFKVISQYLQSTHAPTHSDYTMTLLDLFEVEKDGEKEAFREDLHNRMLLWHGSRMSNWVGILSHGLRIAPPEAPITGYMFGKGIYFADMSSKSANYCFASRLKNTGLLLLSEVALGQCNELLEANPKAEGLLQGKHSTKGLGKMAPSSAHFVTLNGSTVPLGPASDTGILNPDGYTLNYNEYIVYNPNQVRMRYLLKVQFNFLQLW
Protein mono-ADP-ribosyltransferase PARP4, sequence (Q9UKK3 whole entry): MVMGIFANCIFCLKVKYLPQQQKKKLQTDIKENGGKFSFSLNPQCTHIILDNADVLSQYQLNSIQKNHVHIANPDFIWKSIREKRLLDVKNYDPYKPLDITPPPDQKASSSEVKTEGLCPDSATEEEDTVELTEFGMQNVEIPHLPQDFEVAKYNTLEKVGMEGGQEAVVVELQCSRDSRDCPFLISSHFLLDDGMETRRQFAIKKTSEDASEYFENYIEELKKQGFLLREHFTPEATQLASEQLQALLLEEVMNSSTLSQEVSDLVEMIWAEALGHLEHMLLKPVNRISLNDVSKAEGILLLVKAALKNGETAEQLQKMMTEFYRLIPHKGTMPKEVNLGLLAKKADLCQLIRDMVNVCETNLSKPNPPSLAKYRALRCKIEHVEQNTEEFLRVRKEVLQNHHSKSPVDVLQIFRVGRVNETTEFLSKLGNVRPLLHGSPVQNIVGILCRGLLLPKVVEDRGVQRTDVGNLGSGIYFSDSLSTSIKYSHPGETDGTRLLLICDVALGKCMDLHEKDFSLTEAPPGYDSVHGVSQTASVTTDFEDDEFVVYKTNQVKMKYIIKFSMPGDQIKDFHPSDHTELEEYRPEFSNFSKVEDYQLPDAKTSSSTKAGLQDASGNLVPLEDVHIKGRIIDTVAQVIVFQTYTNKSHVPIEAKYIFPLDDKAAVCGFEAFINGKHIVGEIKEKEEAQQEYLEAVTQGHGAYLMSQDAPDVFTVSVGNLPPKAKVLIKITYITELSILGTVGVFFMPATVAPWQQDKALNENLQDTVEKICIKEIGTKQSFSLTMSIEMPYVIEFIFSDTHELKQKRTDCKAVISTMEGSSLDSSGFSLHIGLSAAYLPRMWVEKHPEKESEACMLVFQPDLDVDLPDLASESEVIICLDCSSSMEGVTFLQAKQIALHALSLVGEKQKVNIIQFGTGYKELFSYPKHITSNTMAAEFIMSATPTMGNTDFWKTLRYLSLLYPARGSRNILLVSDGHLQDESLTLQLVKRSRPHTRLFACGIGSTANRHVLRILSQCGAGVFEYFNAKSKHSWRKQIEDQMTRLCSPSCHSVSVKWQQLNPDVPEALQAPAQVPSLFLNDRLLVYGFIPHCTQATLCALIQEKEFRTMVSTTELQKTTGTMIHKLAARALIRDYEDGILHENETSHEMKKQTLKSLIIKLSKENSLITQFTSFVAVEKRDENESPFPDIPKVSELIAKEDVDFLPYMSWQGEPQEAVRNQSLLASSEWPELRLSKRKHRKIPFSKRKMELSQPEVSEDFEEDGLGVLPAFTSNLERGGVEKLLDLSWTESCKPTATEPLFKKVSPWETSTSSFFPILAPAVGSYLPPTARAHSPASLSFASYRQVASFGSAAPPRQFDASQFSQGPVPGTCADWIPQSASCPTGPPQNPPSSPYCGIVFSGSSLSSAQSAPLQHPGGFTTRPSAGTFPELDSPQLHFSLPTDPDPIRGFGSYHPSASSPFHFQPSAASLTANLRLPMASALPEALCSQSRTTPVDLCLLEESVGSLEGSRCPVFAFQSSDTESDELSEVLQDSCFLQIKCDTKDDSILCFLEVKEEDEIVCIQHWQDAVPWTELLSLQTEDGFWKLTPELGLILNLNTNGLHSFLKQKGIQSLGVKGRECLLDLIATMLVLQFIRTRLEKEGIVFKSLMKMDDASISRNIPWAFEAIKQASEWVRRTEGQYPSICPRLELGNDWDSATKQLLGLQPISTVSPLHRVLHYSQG

Take `Cc1cccc2c(=O)[nH]c(CCC(=O)Nc3ccc(C(=O)Nc4cccc5cccnc45)cc3)nc12`: the IC50 (as a rule, the concentration at which inhibition is half-maximal) is 65 µM in test [1]; over 100 µM in test [2]; over 100 µM in test [3]; 11.6 µM in test [4]; 6.5 µM in test [5]; over 100 µM in test [6]. For the same molecule, the IC50 in test [7] was 6.5 µM.

In the case of `O=C(CCc1nc2ccccc2c(=O)[nH]1)Nc1ccc(C(=O)Nc2cccc3cccnc23)cc1`, the IC50 was 69 µM in test [1]; over 100 µM in test [2]; over 100 µM in test [3]; 6.9 µM in test [4]; 8.2 µM in test [5]; over 100 µM in test [6].
